In PubChem BioAssay AID248 (DTP/NCI, 2004):
Several values for one entry are separate records, joined by “and”; a condition that tells them apart may be missing. Equal entries are not always repeated. Inconclusive results and toxic doses are left out. Cut-off read from the data, not from the text of the source: active = T/C of 150% or more; inactive = T/C below 125%.

Test system: L1210 leukemia ip in BDF1 mice, survival T/C
Assay: NCI In Vivo Anticancer Drug Screen. Data for tumor model L1210 Leukemia (intraperitoneal) in B6D2F1 (BDF1) mice
Conditions: endpoint: mean survival time, higher = longer survival
Outline: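 Value reflects the ratio of survival in compound-treated mice to survival in vehicle-treated controls, with both groups carrying the same transplanted tumor.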

[1] = dose: 25.0 mg/kg/injection, schedule: Q01DX009 (ip), vehicle: saline with Tween-80
[2] = dose: 50.0 mg/kg/injection, schedule: Q01DX009 (ip), vehicle: saline with Tween-80
[3] = dose: 100.0 mg/kg/injection, schedule: Q04DX003 (ip), vehicle: saline with Tween-80
[4] = dose: 100.0 mg/kg/injection, schedule: Q01DX009 (ip), vehicle: other
[5] = dose: 100.0 mg/kg/injection, schedule: Q01DX009 (ip), vehicle: saline
[6] = dose: 100.0 mg/kg/injection, schedule: Q04DX003 (ip), vehicle: saline
[7] = dose: 200.0 mg/kg/injection, schedule: Q01DX009 (ip), vehicle: saline
[8] = dose: 200.0 mg/kg/injection, schedule: Q04DX003 (ip), vehicle: saline
[9] = dose: 400.0 mg/kg/injection, schedule: Q01DX009 (ip), vehicle: saline
[10] = dose: 400.0 mg/kg/injection, schedule: Q04DX003 (ip), vehicle: saline
[11] = dose: 100.0 mg/kg/injection, schedule: Q04DX002 (ip), vehicle: saline with Tween-80
[12] = dose: 200.0 mg/kg/injection, schedule: Q04DX002 (ip), vehicle: saline with Tween-80
[13] = dose: 400.0 mg/kg/injection, schedule: Q04DX002 (ip), vehicle: saline with Tween-80
[14] = dose: 100.0 mg/kg/injection, schedule: Q01DX009 (ip), vehicle: saline with Tween-80
[15] = dose: 200.0 mg/kg/injection, schedule: Q01DX009 (ip), vehicle: saline with Tween-80
[16] = dose: 200.0 mg/kg/injection, schedule: Q04DX003 (ip), vehicle: saline with Tween-80
[17] = dose: 400.0 mg/kg/injection, schedule: Q04DX003 (ip), vehicle: saline with Tween-80
[18] = dose: 100.0 mg/kg/injection, schedule: Q04DX002 (ip), vehicle: saline
[19] = dose: 200.0 mg/kg/injection, schedule: Q04DX002 (ip), vehicle: saline
[20] = dose: 400.0 mg/kg/injection, schedule: Q04DX002 (ip), vehicle: saline

Measured: T/C

CNC(=O)NC1CC(OC2CC(O)(C(C)=O)Cc3c(O)c4c(c(O)c32)C(=O)c2c(OC)cccc2C4=O)OC(C)C1O (stereo not drawn)
inactive: dose: 2.0 mg/kg/injection, schedule: Q04DX003 (ip), vehicle: water 103 % of control | dose: 3.12 mg/kg/injection, schedule: Q01DX009 (ip), vehicle: saline with Tween-80 108 % of control | dose: 4.0 mg/kg/injection, schedule: Q04DX003 (ip), vehicle: water 98 % of control | dose: 6.25 mg/kg/injection, schedule: Q01DX009 (ip), vehicle: saline with Tween-80 97 % of control | dose: 8.0 mg/kg/injection, schedule: Q04DX003 (ip), vehicle: water 107 % of control | dose: 12.5 mg/kg/injection, schedule: Q01DX009 (ip), vehicle: saline with Tween-80 103 % of control | dose: 12.5 mg/kg/injection, schedule: Q04DX003 (ip), vehicle: saline with Tween-80 100 % of control | dose: 16.0 mg/kg/injection, schedule: Q04DX003 (ip), vehicle: water 95 % of control and 103 % of control | [1] 112 % of control | dose: 25.0 mg/kg/injection, schedule: Q04DX003 (ip), vehicle: saline with Tween-80 100 % of control | dose: 32.0 mg/kg/injection, schedule: Q04DX003 (ip), vehicle: water 100 % of control | [2] 111 % of control | dose: 50.0 mg/kg/injection, schedule: Q04DX003 (ip), vehicle: saline with Tween-80 100 % of control | dose: 64.0 mg/kg/injection, schedule: Q04DX003 (ip), vehicle: water 104 % of control | [3] 100 % of control | dose: 125.0 micrograms/kg/injection, schedule: Q04DX003 (ip), vehicle: water 104 % of control | dose: 250.0 micrograms/kg/injection, schedule: Q04DX003 (ip), vehicle: water 104 % of control | dose: 500.0 micrograms/kg/injection, schedule: Q04DX003 (ip), vehicle: water 105 % of control | dose: 1000.0 micrograms/kg/injection, schedule: Q04DX003 (ip), vehicle: water 104 % of control | dose: 2000.0 micrograms/kg/injection, schedule: Q04DX003 (ip), vehicle: water 101 % of control

CCN(C(=O)C(F)(F)F)C(C)(C)C(SSSC(c1ccc(Cl)cc1)C(C)(C)N(CC)C(=O)C(F)(F)F)c1ccc(Cl)cc1 (stereo not drawn)
inactive: [4] 94 % of control

CC12CCC(C(N)C1=O)C2(C)C (stereo not drawn)
inactive: [5] 103 % of control | [6] 98 % of control | [7] 105 % of control | [8] 98 % of control | [9] 94 % of control | [10] 97 % of control

OC1CCCCC1Sc1ccccc1 (stereo not drawn)
inactive: [11] 117 % of control | [12] 111 % of control | [13] 105 % of control

C=CCC(CC=C)(C(N)=O)c1ccc(OC)cc1
inactive: dose: 100.0 mg/kg/injection, schedule: Q01DX001 (ip), vehicle: carboxymethylcellulose (CMC) 100 % of control | dose: 200.0 mg/kg/injection, schedule: Q01DX001 (ip), vehicle: carboxymethylcellulose (CMC) 97 % of control | dose: 400.0 mg/kg/injection, schedule: Q01DX001 (ip), vehicle: carboxymethylcellulose (CMC) 111 % of control

CC1(CO)COC(c2ccccc2)=N1 (stereo not drawn)
inactive: [4] 109 % of control | dose: 200.0 mg/kg/injection, schedule: Q01DX009 (ip), vehicle: other 103 % of control | dose: 400.0 mg/kg/injection, schedule: Q01DX009 (ip), vehicle: other 109 % of control

NC(=S)N/N=C/c1c(Cl)n(C(=O)c2ccccc2Cl)c2ccccc12
inactive: dose: 50.0 mg/kg/injection, schedule: Q04DX002 (ip), vehicle: Klucel (hydroxypropylcellulose) (HPC) 87 % of control | dose: 100.0 mg/kg/injection, schedule: Q04DX002 (ip), vehicle: Klucel (hydroxypropylcellulose) (HPC) 87 % of control | dose: 200.0 mg/kg/injection, schedule: Q04DX002 (ip), vehicle: Klucel (hydroxypropylcellulose) (HPC) 91 % of control

CC1=CC=CC(C)(Cc2ccc(-c3ccc(CC4(C)C=CC=C(C)C4=O)cc3)cc2)C1=O (stereo not drawn)
inactive: dose: 100.0 mg/kg/injection, schedule: Q01DX001 (ip), vehicle: saline sonified 92 % of control | dose: 200.0 mg/kg/injection, schedule: Q01DX001 (ip), vehicle: saline sonified 90 % of control | dose: 400.0 mg/kg/injection, schedule: Q01DX001 (ip), vehicle: saline sonified 95 % of control

Cc1c(-c2ccccc2)sc(N)c1C#N
inactive: dose: 100.0 mg/kg/injection, schedule: Q01DX001 (ip), vehicle: saline with Tween-80 94 % of control | [14] 93 % of control and 100 % of control | [11] 94 % of control | [3] 95 % of control | dose: 200.0 mg/kg/injection, schedule: Q01DX001 (ip), vehicle: saline with Tween-80 93 % of control | [15] 92 % of control | [12] 94 % of control and 98 % of control | [16] 100 % of control | dose: 400.0 mg/kg/injection, schedule: Q01DX001 (ip), vehicle: saline with Tween-80 93 % of control | dose: 400.0 mg/kg/injection, schedule: Q01DX009 (ip), vehicle: saline with Tween-80 100 % of control and 87 % of control | [13] 96 % of control | [17] 100 % of control

O=C1CC(N2C(=O)C3CCCCC3C2=O)C(=O)N1 (stereo not drawn)
inactive: [6] 97 % of control | [8] 101 % of control | [10] 97 % of control

COC(=O)C1=C(C(=O)OC)C2(O)c3ccccc3C1c1ccccc12
inactive: [5] 100 % of control | [7] 93 % of control | [9] 88 % of control

CC(=O)NCc1ccc([N+](=O)[O-])cc1
inactive: [1] 100 % of control | [2] 107 % of control | [14] 104 % of control | [15] 111 % of control

O=[N+]([O-])c1ccc2n[nH]c(Cl)c2c1
inactive: dose: 100.0 mg/kg/injection, schedule: Q01DX001 (ip), vehicle: saline 95 % of control | dose: 200.0 mg/kg/injection, schedule: Q01DX001 (ip), vehicle: saline 95 % of control | dose: 400.0 mg/kg/injection, schedule: Q01DX001 (ip), vehicle: saline 94 % of control

CCCCCCCC[Se]CCCCCCCC
inactive: [3] 111 % of control | [16] 103 % of control | [17] 103 % of control

Nc1ncnc2oc(-c3ccccc3)c(-c3ccccc3)c12
inactive: dose: 50.0 mg/kg/injection, schedule: Q04DX002 (ip), vehicle: saline with Tween-80 91 % of control | [11] 88 % of control

CC(=O)OCC1=C(C(=O)O)N2C(=O)C(NC(=O)CSc3ccncc3)C2SC1 (stereo not drawn)
inactive: [18] 103 % of control | [19] 114 % of control | [20] 107 % of control

CNC(=S)Nc1ccc(C)c(Cl)c1
inactive: [18] 104 % of control | [19] 108 % of control | [20] 106 % of control
